We go through 7 compounds from US4254128A, “2-Adamantyl hydrazines and biocidal compositions thereof” (Teva Pharmaceutical Industries Ltd., priority 1977, dated 1981).

The structures appear in SMILES notation. Structures can show the parent of a compound that is named as a salt. Where two headings read alike, the source gives them in different places.

In one data set the test system is HSV-1 (Herpes Simplex). Briefly: Inhibition test on HSV replication. Format: cell-based. The following applies: for inhibition at 100 µg/mL: 100 μg/ml; for inhibition at 200 µg/mL: 200 μg/ml. An excerpt:
BSC-1 (Green monkey kidney)
**% Inhibition of control infected for some time with same virus PFV with […]

Data set [1] in a line: Toxic limit in the HSV replication test. The following applies: monkey, bsc-1 cells.
In data set [2] the test system is 4 mycoplasma (M. gallisepticum, M. capricolum, M. hominis, A. laidlawii). Nature of the data set: organism not typed. The data set is classed as cell-based. The note with it: read-out: 50% inhibition of growth.
In a further data set the test system is Leishmania. Briefly: Anti leishmania tests, summary. Format: cell-based, L. tropica. The note with it: summary in words. The method, then: (§1) a. amastigotes in peritoneal exudate cells in Mc Coy's medium in vitro at 37° C.
(§2) b. promastigotes in Mc Coy's medium in vitro at 27° C.

For a further data set, the system named is L. tropica promastigotes. Briefly: Anti leishmania test, promastigotes in vitro. Format: cell-based. The note with it: 27° C. The method, then:
as §2
+++=No viable parasites after 24 hours
++=No viable parasites after 48 hours
+=No viable parasites after 72 hours
±=No viable parasites after 96 hours p2 -=viable parasites after 120 hours.

In another data set the test system is L. tropica amastigotes. Nature of the data set: Anti leishmania test, amastigotes in peritoneal exudate cells in vitro. The note with it: 37° C. Format: cell-based. The method, then:
as §1
+++=clearance of all parasites in 24 hours
++=clearance of all parasites in 48 hours
+=clearance of all parasites in 72 hours
±=Partial clearance of parasites in 72 hours or more
-=No activity against parasites.

In data set [3] the test system is Leptospira canicola Kipod 146. Briefly: Anti leptospiral activity (minimal inhibition concentration). Format: cell-based. The note with it: for MIC: Leptospira interrogans, KIPOD146, 240 h. The method, then: The tests were carried out under the following conditions:
Leptospira: Leptospira canicola Kipod 146
Inoculum: 1-10^5 cells/ml
Incubation time: 10 days, 28° C.
Evaluation: Direct count in dark field microscopy after 4,7 and 10 days.
2 Minimal+0.5% albumin (Pentex)
3 Korthof rich medium with 8% serum.
4 Korthof rich medium with 2% serum.

In data set [4] the test system is albino mice. Nature of the data set: Stereotyped behaviour in mice. Format: in vivo, Male ICR albino mice. On the set-up: stereotyped behaviour score / Total Score / Mean Score: scale not given here. The method, then:
Male ICR albino mice weighing 25-30 g were put in cages with a metal grid floor, 4 in each cage. Drugs were injected intraperitoneally and stereotyped behaviour (sniffing, biting, repetitive head movement) was evaluated every 30 min.

The subject of a further data set is albino rats. Briefly: Antiparkinson activity (catalepsy produced by haloperidol). The data set is classed as in vivo, Male Charles River albino rats. The note with it: for anticataleptic effect: 80 mg/kg i.p.; for antiparkinson activity: summary in words. The method, then: Male Charles River albino rats, weighing 200-250 g, were used. Catalepsy was produced by haloperidol, 5 mg/kg i.p. The animals were placed with their front paws on a horizontal bar, about 10 cm above the ground, and animals were considered cataleptic if not changing posture for at least 30 sec. Cataleptic animals were injected i.p. with one of the drugs at a dose of 40-80 mg/kg. Catalepsy was estimated again at the intervals indicated.

Data set [5] has as its system albino mice. Nature of the data set: Stereotyped behaviour in mice. The following applies: 50 mg/kg i.p. On the set-up: scale not given here. Format: in vivo, Male ICR albino mice.
In another data set the test system is Trypanosoma. Nature of the data set: Anti trypanosoma test in vitro. The data set is classed as cell-based. The method, then: Trypanosoma in RPM1 medium in vitro at 37° C. Scoring as in b.
The mark [6] stands for this setting: Human alphaherpesvirus 1, 50 μg/ml, BSC-1 cells, 10 PFU/cell, read-out: % Inhibition.
Where [7] appears, read: Human alphaherpesvirus 1, BSC-1 cells, 10 PFU/cell.

A word on the inhibition: it is how much of the control response was suppressed. For orientation: MIC means the lowest concentration that inhibits growth of the organism.

In the data set on HSV-1 (Herpes Simplex) (Human alphaherpesvirus 1, BSC-1), `NC12CC3CC(CC(C3)C1)C2` [Amant., Amantadine, reference compound] gave an inhibition at 50 µg/mL of 93%. The compound also returned an MNTC in data set [1] of 50 µg/mL.
For the compound `c1ccc(CCNNC2C3CC4CC(C3)CC2C4)cc1` (centres unmarked) [Example 2, 1-(2'-Adamantyl)-2-phenethylhydrazine hydrochloride], the IC50 in data set [2] lay within 5 to 30 µg/mL.
Take `c1ccc(CN2CCN(NC3C4CC5CC(C4)CC3C5)CC2)cc1` (centres unmarked) [Example 16, 1-(2'-Adamantylamino)-4-benzylpiperazine dihydrochloridemonohydrate]: the “activity against Leishmania” value with Leishmania was “active”. In [2], the IC50 is 5 to 30 µg/mL. The “Leishmania promastigote activity score” value in the data set on L. tropica promastigotes (10 μg) and in the data set with L. tropica promastigotes (100 μg) was “+++ (No viable parasites after 24 hours)” in each case.
For `CN(N)C1C2CC3CC(C2)CC1C3` (centres unmarked) [Example 27, 1-(2'-Adamantyl)-1-methylhydrazine hydrochloride], the inhibition at 25 µg/mL in the data set on HSV-1 (Herpes Simplex) (Human alphaherpesvirus 1, 25 μg/ml, BSC-1 cells, 10 PFU/cell) was found to be 46%. The inhibition at 50 µg/mL with HSV-1 (Herpes Simplex) (setting [6]) came out at 81%. For the same compound, the inhibition at 100 µg/mL with HSV-1 (Herpes Simplex) (setting [7]) is 100%. Further, the “activity against Leishmania” value with Leishmania is reported as “active”. Moreover, the “Leishmania amastigote activity score” value in the data set on L. tropica amastigotes (10 μg) is “± (Partial clearance of parasites in 72 hours or more)”; in the data set with L. tropica amastigotes (100 μg), “++ (clearance of all parasites in 48 hours)”. Besides, the values for the MIC in data set [3] (Korthof + 8% serum), in [3] (minimal + Pentex (0.5% albumin)) and in data set [3] (minimal medium) were 50 µg/mL, 6.25 µg/mL and 3.12 µg/mL, respectively. Moreover, the anti leptospiral activity entry in data set [3] (summary in words) was “active”. Also, the stereotyped behaviour score amounted to 0 with albino mice [4] (50 mg/kg i.p., 0 min, mouse 1); 0 in the data set on albino mice [4] (50 mg/kg i.p., 0 min, mouse 2); 0 in the data set with albino mice [4] (50 mg/kg i.p., 0 min, mouse 3); 0 in the data set with albino mice [4] (50 mg/kg i.p., 0 min, mouse 4); 0 in the data set with albino mice [4] (50 mg/kg i.p., 30 min, mouse 1); 0 in the data set with albino mice [4] (50 mg/kg i.p., 30 min, mouse 2). For the same compound, the stereotyped behaviour score with albino mice [4] (50 mg/kg i.p., 30 min, mouse 3) turned out to be 1; in the data set on albino mice [4] (50 mg/kg i.p., 30 min, mouse 4), 0; in the data set on albino mice [4] (50 mg/kg i.p., 45 min, mouse 3), 1; with albino mice [4] (50 mg/kg i.p., 45 min, mouse 4), 1; with albino mice [4] (50 mg/kg i.p., 60 min, mouse 1), 2; with albino mice [4] (50 mg/kg i.p., 60 min, mouse 2), 2. Besides, the stereotyped behaviour score with albino mice [4] (50 mg/kg i.p., 60 min, mouse 3) was determined as 2; in the data set on albino mice [4] (50 mg/kg i.p., 60 min, mouse 4), 2; in the data set on albino mice [4] (50 mg/kg i.p., 90 min, mouse 1) it was 2; in the data set with albino mice [4] (50 mg/kg i.p., 90 min, mouse 2) it was 2; with albino mice [4] (50 mg/kg i.p., 90 min, mouse 3), 2; in the data set with albino mice [4] (50 mg/kg i.p., 90 min, mouse 4), 2. The stereotyped behaviour score with albino mice [4] (50 mg/kg i.p., 120 min, mouse 1) came to 1; in the data set on albino mice [4] (50 mg/kg i.p., 120 min, mouse 2) it was 1; in the data set on albino mice [4] (50 mg/kg i.p., 120 min, mouse 3), 0; in the data set on albino mice [4] (50 mg/kg i.p., 120 min, mouse 4) it was 0; in the data set with albino mice [4] (50 mg/kg i.p., 135 min, mouse 1), 1; in the data set with albino mice [4] (50 mg/kg i.p., 135 min, mouse 2) it was 1. Also, the stereotyped behaviour score in the data set on albino mice [4] (50 mg/kg i.p., 150 min, mouse 1) is reported as 1; in the data set with albino mice [4] (50 mg/kg i.p., 150 min, mouse 2), 1; in the data set on albino mice [4] (50 mg/kg i.p., 150 min, mouse 3), 0; with albino mice [4] (50 mg/kg i.p., 150 min, mouse 4) it was 0; with albino mice [4] (50 mg/kg i.p., 180 min, mouse 1), 0; in the data set on albino mice [4] (50 mg/kg i.p., 180 min, mouse 2), 0. For the same compound, the stereotyped behaviour score in the data set on albino mice [4] (50 mg/kg i.p., 180 min, mouse 3) is recorded as 0; with albino mice [4] (50 mg/kg i.p., 180 min, mouse 4) it was 0; in the data set on albino mice [4] (50 mg/kg i.p., 210 min, mouse 1) it was 0; with albino mice [4] (50 mg/kg i.p., 210 min, mouse 2), 1; with albino mice [4] (50 mg/kg i.p., 210 min, mouse 3) it was 0; in the data set with albino mice [4] (50 mg/kg i.p., 210 min, mouse 4) it was 0. Besides, the stereotyped behaviour score in the data set with albino mice [4] (50 mg/kg i.p., 240 min, mouse 1) was found to be 0; with albino mice [4] (50 mg/kg i.p., 240 min, mouse 2) it was 0; in the data set on albino mice [4] (50 mg/kg i.p., 240 min, mouse 3), 0; with albino mice [4] (50 mg/kg i.p., 240 min, mouse 4), 0; with albino mice [5] (45 min, mouse 1), 0; in the data set with albino mice [5] (45 min, mouse 2), 1. Besides, the stereotyped behaviour score in the data set on albino mice [5] (135 min, mouse 3) turned out to be 0; with albino mice [5] (135 min, mouse 4) it was 0. Besides, in the data set with albino mice [4] (50 mg/kg i.p., mean of 4 mice), the “Mean Score” value is recorded as 6.5. For the same compound, the “Total Score” value in the data set on albino mice [4] (50 mg/kg i.p., mouse 1) is 7; in the data set with albino mice [4] (50 mg/kg i.p., mouse 2), 9; in the data set with albino mice [4] (50 mg/kg i.p., mouse 3), 6; in the data set on albino mice [4] (50 mg/kg i.p., mouse 4), 5. Also, the stereotyped behaviour activity entry with albino mice [4] (summary in words) is reported as “active”. Moreover, the “Leishmania promastigote activity score” value in the data set with L. tropica promastigotes (100 μg) is given as “+++ (No viable parasites after 24 hours)”. The anticataleptic effect was 3/4 with albino rats (rat 1); 1/4 with albino rats (rat 2); 2/4 in the data set with albino rats (rat 3); 3/4 in the data set on albino rats (rat 4); 4/4 in the data set with albino rats (rat 5). Also, the antiparkinson activity result in the data set with albino rats is given as “active”. This compound displayed an MNTC in [1] of 100 µg/mL.
For the compound `O=C(O)CNNC1C2CC3CC(C2)CC1C3` (centres unmarked) [Example 36, [2-(2'-adamantyl)hydrazino]acetic acid hydrochloride], in the data set on HSV-1 (Herpes Simplex) (setting [6]), the inhibition at 50 µg/mL turned out to be 0%. In the data set on HSV-1 (Herpes Simplex) (setting [7]), this compound gave an inhibition at 100 µg/mL of 0%. In addition, testing at 200 µg/mL in the data set with HSV-1 (Herpes Simplex) (setting [7]) gave an inhibition of 98%. The “activity against Leishmania” value in the data set with Leishmania was “active”. The “Leishmania amastigote activity score” value in the data set with L. tropica amastigotes (100 μg) is listed as “++ (clearance of all parasites in 48 hours)”. In the data set on L. tropica promastigotes (100 μg), the “Leishmania promastigote activity score” value is listed as “++ (No viable parasites after 48 hours)”. In addition, the anticataleptic effect in the data set on albino rats (rat 1) is reported as 2/4; in the data set with albino rats (rat 2), 1/4; in the data set with albino rats (rat 3), 3/4; in the data set on albino rats (rat 4), 2/4; in the data set with albino rats (rat 5), 0/4. Further, the antiparkinson activity entry with albino rats is reported as “active”. In data set [1], this compound yielded an MNTC of 200 µg/mL.
As to `CC(NNC1C2CC3CC(C2)CC1C3)C(=O)O` (stereo not drawn) [Example 38, α-[2-(2'-Adamantyl)hydrazino]propionic acid hydrochloride], the “activity against Leishmania” value with Leishmania is recorded as “active”. Also, the “Leishmania amastigote activity score” value with L. tropica amastigotes (100 μg) is reported as “++ (clearance of all parasites in 48 hours)”. For the same compound, the “Leishmania promastigote activity score” value in the data set on L. tropica promastigotes (10 μg) is on record as “± (No viable parasites after 96 hours)”; with L. tropica promastigotes (100 μg), “++ (No viable parasites after 48 hours)”.
Take `CNN(C)C1C2CC3CC(C2)CC1C3` (centres unmarked) [Example 49, 1-(2'-Adamantyl)-1,2-dimethylhydrazine hydrochloride]: in the data set on HSV-1 (Herpes Simplex) (setting [6]), the inhibition at 50 µg/mL is 60%. In the data set with HSV-1 (Herpes Simplex) (setting [7]), this compound yielded an inhibition at 100 µg/mL of 92% and an inhibition at 200 µg/mL of 99.9%. The “Trypanosoma in vitro activity score” value in the data set with Trypanosoma (100 μg, 37° C., scoring as in b (promastigotes)) is recorded as “++ (No viable parasites after 48 hours)”. For the same compound, in the data set with Trypanosoma (summary in words), the “activity against Trypanosoma” value is reported as “active”. In data set [1], this compound displayed an MNTC of 100 µg/mL.
